Our source for the cell adhesion values is patent US9012594B2, “Catalyst and byproduct-free native chemical ligation using cyclic thioester precursors” (Northwestern University, priority 2010, dated 2015).

This assay relates to cells. The assay can be described thus: Cell adhesion on peptide-functionalized hydrogel. Particulars: peptide at 1% of the total cysteine groups used for hydrogel formation. It counts as cell-based. The text has this: The methods of macromonomer and hydrogel formation described herein provide biocompatible macromonomers and hydrogels which are easily modified with bioactive materials to improve functions of encapsulated cells such as supporting cell growth, and the development and secretion of cellular products upon biological stimulus. By “bioactive” we mean a substance that has or cause an effect on in biological samples. In this work, the macromonomers and hydrogels were further functionalized with peptides, although other bioactive materials may be used, such as proteins, growth factors, DNA, RNA. Peptides were functionalized through the Michael addition reaction between 4A-PEG-Cys and maleimide-terminated peptides prior to the cross-linking between 4A-PEG-Cys and 4A-PEG-CThE. This reaction is quantitative and fast, providing a good control over the density of peptides attached to the resulted hydrogel. Such strategy works well, when the physiological effects of peptides on cells can be achieved at low immobilization density.

In the case of “GRGDSPG (maleimide-GRGDSPG-NH2; also: conjugated to 4A-PEG-Cys) [cell adhesion peptide, maleimide-terminated, attached to 4A-PEG-Cys by Michael addition]”, the cell adhesion result is given as “sufficient to support cell adhesion”.
